Results on one molecule are retold here after patent publication US7258738B2, “Cementing compositions including salts” (Halliburton Energy Services, Inc., priority 2005, dated 2007).

For one data set, the system named is scopthalmus. Briefly: Fish toxicity, Part B of the OSPAR Protocols. The format is in vivo. The conditions noted are these: amount required to kill or incapacitate half the test population. The source says:
(§1) According to still other embodiments described herein, a disulfonate salt of 2,4-pentanedione is provided. According to one such embodiment, the salt comprises 2,4-pentanedione-1,5-sodium disulfonate. According to another such embodiment, a disulfonate salt of 2,4-pentanedione has an environmentally acceptable toxicity. As used herein, the term “environmentally acceptable toxicity” means that, when tested according to procedures that are the same as or equivalent to those set forth by the OSPAR Guidelines for Completing the Harmonised Offshore Chemical Notification Format (HOCNF) (References number: 2003-1) that were in effect on Dec. 31, 2004, the salt is determined to have a toxicity of greater than about 10,000 mg/L for an algae (skeletonema costatum), a crustacean (acartia tonsa), a fish (scopthalmus) and a sediment reworker (corophium volutator). […]
(§2) In this Example 3, the toxicity results for the skeletonema costatum were determined according to ISO (International Organization for Standardization) 10253, the protocol for which is known to those of ordinary skill in the art, and is also the protocol required under the above-referenced HOCNF Guidelines. The toxicity results for the acartia tonsa were determined according to ISO 14669, the protocol for which is known to those of ordinary skill in the art. […]

In a further data set the test system is acartia tonsa. Briefly: Crustacean toxicity, ISO 14669. The format is in vivo. The following applies: amount required to kill or incapacitate half the test population.
Source text: as §1, §2

The nature of data set [1]: Solubility of salt compared to free acid (methanol rinse). It counts as physicochemical. The source says: The neutralized product was then rinsed several times with methanol to remove by-product acids, or any salts formed therefrom, while leaving the 2,4-pentanedione-1,5-sodium disulfonate primarily undissolved. […] The rinsed product was dried in a vacuum oven and filtered through a 300 mesh screen to afford a flowing pale orange/red powder. The resulting powder was 2,4-pentanedione-1,5-sodium disulfonate.

For the next data set, the system named is skeletonema costatum. Briefly: Algae toxicity, ISO 10253 (HOCNF). The conditions noted are these: amount required to kill or incapacitate half the test population. It counts as in vivo.
Source text: as §1, §2

For the next data set, the system named is corophium volutator. Briefly: Sediment reworker toxicity, Part B of the OSPAR Protocols. It counts as in vivo. The conditions noted are these: amount required to kill or incapacitate half the test population.
Source text: as §1, §2

Take `O=C(CC(=O)CS(=O)(=O)[O-])CS(=O)(=O)[O-].[Na+].[Na+]` [2,4-pentanedione-1,5-sodium disulfonate]: the toxicity result with scopthalmus, in the data set on acartia tonsa, in the data set on skeletonema costatum and in the data set with corophium volutator was “greater than 10,000 mg/L” throughout. Besides, the “solubility compared to the 2,4-pentanedione-1,5-disulfonic free acid” value in data set [1] was “significantly less soluble”.
